This note sets out measurements from patent US12465588B2, “Indole carboxamide derivative and pharmaceutical composition containing same” (KUKJE PHARMA CO., LTD., priority 2019, dated 2025).

In test [1] the test system is PGE2, IL-1β, and TNF-α in blood. In words: Inflammatory factor evaluation (ELISA) in blood of MIA osteoarthritis guinea pigs. The test is classed as in vivo, guinea pig. The note with it: for IL-1β (ELISA analysis) / PGE2 (ELISA analysis) / TNF-α (ELISA analysis): blood, after 4 weeks. The protocol:
(§1) Specifically, male guinea pigs weighing about 500 g±20% from Coretech Co., Ltd. (Gyeonggi-do, Korea) were acclimated in a laboratory for 8 days, and provided chow and water ad libitum. Temperature (23±3° C.), humidity (55±15%) and light/dark cycle (12 hours, 08:00˜20:00) were controlled automatically.
(§2) Each group consisted of 10 guinea pigs. Guinea pigs were anesthetized with Zoletil 50 (VIRBAC, France, 5 mg/kg) and xylazine (Rompun®, Bayer AG, Germany, 2.5 mg/kg) and depilated at the area around the right knee with Clipper. Using a C-arm (ARCADIS Varic, SIEMENS Co.), it was confirmed that a syringe equipped with a 26 gauge needle was located in the joint cavity. 50 μL of MIA at a concentration of 60 mg/mL was administered into the joint cavity. One week after MIA administration, Compound 9 of the present invention was added to excipients (DMSO (10% by weight), Tween 80 (30% by weight), HMPC (same amount as the drug)), dissolved in water so that the total amount was 100% by weight, and orally administered to the prepared experimental animals at 10 mg/kg and 25 mg/kg, respectively. In the positive control group, GRC27864 was orally administered at 12.5 mg/kg using the same excipient, and only the excipient was orally administered to the control group. The drug was administered for 4 weeks.
(§3) The hind limb incapacitance test was performed for the behavioral evaluation weekly for 4 weeks and the inflammatory factor evaluation was performed by measuring PGE2, IL-1β, and TNF-α in blood after 4 weeks.
The concentrations of PGE2, IL-1β, and TNF-α in blood were measured using commercially available ELISA kit after 4 weeks. The results are shown in Table 4 below and FIGS. 2 to 4. ***, ** and * represent statistical significance compared to the control group, and are P<0.001, P<0.01, and P<0.05 compared to the control group.
In general terms: ELISA stands for enzyme-linked immunosorbent assay.

For test [2], the system named is A549 human lung cancer cells. In words: Measurement of PGE2 in IL-1β-treated A549 human lung cancer cells. Particulars: PGE2 production, A549 cell, IL-1β 1 ng/mL, 48 hours. The test is classed as cell-based. The protocol: Samples at various concentrations were added at 24 hours after A549 human lung cancer cells were seeded. After 1 hour, IL-1β of 1 ng/mL was added. The cells were cultured for 48 hours and then the culture supernatant was collected. PGE2 of the collected supernatant was measured according to the manufacturer's instructions using a PGE2 EIA kit.

In test [3] the test system is guinea pig model of osteoarthritis induced by MIA (monosodium iodoacetate). In words: Hind limb incapacitance test in guinea pig model of osteoarthritis induced by MIA. The test is classed as in vivo. The note with it: for weight-bearing ratios, course in words: over 4 weeks of oral administration after MIA. The protocol:
An experiment was conducted as follows in order to evaluate the efficacy of the compound according to the present invention for osteoarthritis-induced guinea pigs.
as §1, §2, §3
The hind limb weight-bearing ratios were obtained by setting up the animals at an inclination of 60 degrees in a plastic room using an incapacitance meter tester, measuring the intensity applied to each hind limb over 10 seconds, and calculating an average. Weight-bearing ratios are 50% for normal cases and up to early 30% for the cases in which a disease is induced.

Test [4] relates to acetic acid-induced abdominal contraction mouse model. In words: Anti-pain efficacy test, acetic acid-induced abdominal contraction mouse model. The test is classed as in vivo. The note with it: oral, 1 hour before 0.7% acetic acid i.p.; writhing counted for 10 minutes (FIG. 5). The protocol:
In order to evaluate the anti-pain efficacy of the compound according to the present invention in abdominal contraction mice, an experiment was conducted as follows.
Specifically, male ICR mice weighing about 20 to 25 g from Orient Bio Co., Ltd. (Gyeonggi-do, Korea) were acclimated in a laboratory for 7 days and provided chow and water ad libitum. Temperature (20±2° C.), humidity (40±60%) and light/dark cycle (12 hours) were controlled automatically.
Based on 10 mice per group, the control group was orally administered with an excipient (200 μL), and the positive control group was orally administered with celecoxib at 25 mg/kg. Compound 9 of the present invention was dissolved in an excipient (10% NMP (N-methyl-2-pyrrolidone), 10% ethanol, 80% polyethylene glycol 400) and administered orally at 10 and 50 mg/kg to each mouse. One hour after drug administration, 0.7% acetic acid was intraperitoneally injected at […] to induce pain. The number of writhing was measured for 10 minutes from 10 minutes after the acetic acid administration.
In this experiment, the less the number of writhing for 10 minutes, the stronger the anti-pain efficacy of the drug was evaluated. The statistical significance compared to the control group was represented as **P<0.01, *P<0.05 compared to the control group.
(In general: An intraperitoneal irritant provokes the stretching counted in writhing tests.)

pIC50: −log10 of the molar value. Marks after values point to notes of the source that are not given here.

A word on the pIC50: it is the IC50 on a negative log10 scale, so that one unit is a factor of ten. Read a low pIC50 as a high IC50. In the case of `CC(C)C(=O)NCc1ccc(Cl)c(C(=O)Nc2ccc3c(c2)cc(C(=O)Nc2ccc(OC(F)(F)F)cc2)n3C)c1` [Compound 9, 5-(2-chloro-5-(isobutyramidomethyl)benzamido)-1-methyl-N-(4-(trifluoromethoxy)phenyl)-1H-indole-2-carboxamide], the “inhibitory ability on inflammatory factors, in words” value in test [1] (25 mpk, compared with GRC27864 group) is “inhibited the inflammatory factor more than the group administered with the drug GRC27864”. Moreover, the entries for the “IL-1β (ELISA analysis)” value in test [1] (10 mpk oral) and in test [1] (25 mpk oral) were 41.547 ± 10.683 and 34.345 ± 11.786, respectively. Besides, the “PGE2 (ELISA analysis)” value is 9331.6 ± 2215.6 in test [1] (10 mpk oral) and 5812.4 ± 1758.8*** in test [1] (25 mpk oral). Also, the figures for the “TNF-α (ELISA analysis)” value in test [1] (10 mpk oral) and in test [1] (25 mpk oral) were 119.715 ± 22.898 and 94.833 ± 22.453**, respectively. Further, in test [2], the pIC50 was 8.15. Besides, the Weight-bearing ratio was determined as 42.05 ± 2.99% in test [3] (10 mpk oral, day 0); 39.64 ± 5.30% in test [3] (10 mpk oral, day 7); 39.53 ± 6.41% in test [3] (10 mpk oral, day 14); 40.16 ± 2.92% in test [3] (10 mpk oral, day 21); 38.42 ± 1.52% in test [3] (10 mpk oral, day 28); 39.15 ± 4.53% in test [3] (25 mpk oral, day 0). In addition, the Weight-bearing ratio worked out at 42.39 ± 3.69% in test [3] (25 mpk oral, day 7); 40.65 ± 3.61% in test [3] (25 mpk oral, day 14); 39.19 ± 3.15% in test [3] (25 mpk oral, day 21); 39.28 ± 4.14% in test [3] (25 mpk oral, day 28). For the same compound, the “weight-bearing ratios, course in words” value in test [3] is reported as “did not worsen after MIA administration but were maintained”. Further, the “number of writhing compared to the control group” value in test [4] was “significantly lower number of writhing compared to the control group”.

Regarding `CC(C)C(=O)NCc1ccc(Cl)c(C(=O)Nc2ccc3c(c2)cc(C(=O)N[C@@H](C)c2ccc([N+](=O)[O-])cc2)n3CC(F)(F)F)c1` [Compound 66, (S)-5-(2-chloro-5-(isobutyramidomethyl)benzamido)-N-(1-(4-nitrophenyl)ethyl)-1-(2,2,2-trifluoroethyl)-1H-indole-2-carboxamide], in test [2], the pIC50 was 7.36.

In the case of `CC(C)C(=O)NCc1ccc(Cl)c(C(=O)Nc2ccc3c(c2)cc(C(=O)N[C@@H](C)c2ccc(Br)cc2)n3CC(F)(F)F)c1` [Compound 67, (S)—N-(1-(4-bromophenyl)ethyl)-5-(2-chloro-5-(isobutyramidomethyl)benzamido)-1-(2,2,2-trifluoroethyl)-1H-indole-2-carboxamide], the pIC50 in test [2] was 8.74.

As to `CC(C)C(=O)NCc1ccc(Cl)c(C(=O)Nc2ccc3c(c2)cc(C(=O)NCc2ccc(F)cc2)n3CC(F)(F)F)c1` [Compound 68, 5-(2-chloro-5-(isobutyramidomethyl)benzamido)-N-(4-fluorobenzyl)-1-(2,2,2-trifluoroethyl)-1H-indole-2-carboxamide], the pIC50 in test [2] is 8.07.

Compound `CC(C)C(=O)NCc1ccc(Cl)c(C(=O)Nc2ccc3c(c2)cc(C(=O)NCc2cc(F)cc(C(F)(F)F)c2)n3CC(F)(F)F)c1` [Compound 69, 5-(2-chloro-5-(isobutyramidomethyl)benzamido)-N-(3-fluoro-5-(trifluoromethyl)benzyl)-1-(2,2,2-trifluoroethyl)-1H-indole-2-carboxamide] had a negative-log IC50 (pIC50) in test [2] of 7.33.

On to `CC(C)C(=O)NCc1ccc(Cl)c(C(=O)Nc2ccc3c(c2)cc(C(=O)NCc2cccc(C(F)(F)F)c2)n3CC(F)(F)F)c1` [Compound 70, 5-(2-chloro-5-(isobutyramidomethyl)benzamido)-1-(2,2,2-trifluoroethyl)-N-(3-(trifluoromethyl)benzyl)-1H-indole-2-carboxamide], for which the pIC50 in test [2] was 8.02.

As to `CC(C)C(=O)NCc1ccc(Cl)c(C(=O)Nc2ccc3c(c2)cc(C(=O)NCc2ccc(Cl)c(F)c2)n3CC(F)(F)F)c1` [Compound 71, N-(4-chloro-3-fluorobenzyl)-5-(2-chloro-5-(isobutyramidomethyl)benzamido)-1-(2,2,2-trifluoroethyl)-1H-indole-2-carboxamide], in test [2], the pIC50 is 7.70.

In turn, `CC(C)C(=O)NCc1ccc(Cl)c(C(=O)Nc2ccc3c(c2)cc(C(=O)NCc2ccc(OC(F)(F)F)cc2)n3CC(F)(F)F)c1` [Compound 72, 5-(2-chloro-5-(isobutyramidomethyl)benzamido)-1-(2,2,2-trifluoroethyl)-N-(4-(trifluoromethoxy)Benzyl)-1H-indole-2-carboxamide] gave a pIC50 in test [2] of 8.03.

As for `CC(C)C(=O)NCc1ccc(Cl)c(CNc2ccc3c(c2)cc(C(=O)Nc2ccc(OC(F)(F)F)cc2)n3C)c1` [Compound 73, 5-((2-chloro-5-(isobutyramidomethyl)benzyl)amino)-1-methyl-N-(4-(trifluoromethoxy)phenyl)-1H-indole-2-carboxamide], the pIC50 in test [2] is 7.14.

In the case of `CC(C)C(=O)NCc1ccc(Cl)c(C(=O)Nc2ccc3[nH]c(C(=O)Nc4ccc(OC(F)(F)F)cc4)cc3c2)c1` [Compound 74, 5-(2-chloro-5-(isobutyramidomethyl)benzamido)-N-(4-(trifluoromethoxy)phenyl)-1H-indole-2-carboxamide], in test [2], the pIC50 is 8.23.

Consider `CC(C)C(=O)NCc1ccc(Cl)c(C(=O)Nc2ccc3[nH]c(C(=O)Nc4ccc(C(F)(F)F)cc4)cc3c2)c1` [Compound 75, 5-(2-chloro-5-(isobutyramidomethyl)benzamido)-N-(4-(trifluoromethyl)phenyl)-1H-indole-2-carboxamide], for which, in test [2], the pIC50 is 8.19.

Turning to `CC(C)C(=O)NCc1ccc(Cl)c(-c2nc3cc(-c4ccc(C(F)(F)F)cc4)ncc3c(=O)[nH]2)c1` [GRC27864, reference compound], the “IL-1β (ELISA analysis)” value in test [1] (12.5 mpk oral) is 37.408 ± 9.109. Also, the “PGE2 (ELISA analysis)” value in test [1] (12.5 mpk oral) was 7756.9 ± 1860.5**. The “TNF-α (ELISA analysis)” value in test [1] (12.5 mpk oral) is 97.110 ± 20.595*. For the same compound, in test [2], the pIC50 is 8.49. For the same compound, the Weight-bearing ratio is listed as 40.84 ± 2.68% in test [3] (GRC27864 12.5 mg/kg oral, day 0); 43.66 ± 4.51% in test [3] (GRC27864 12.5 mg/kg oral, day 7); 39.85 ± 3.29% in test [3] (GRC27864 12.5 mg/kg oral, day 14); 37.35 ± 4.43% in test [3] (GRC27864 12.5 mg/kg oral, day 21); 40.92 ± 3.85% in test [3] (GRC27864 12.5 mg/kg oral, day 28). In test [3], the “weight-bearing ratios, course in words” value is reported as “did not worsen after MIA administration but were maintained”.

Regarding `Cc1ccc(-c2cc(C(F)(F)F)nn2-c2ccc(S(N)(=O)=O)cc2)cc1` [celecoxib, reference compound], the “number of writhing compared to the control group” value in test [4] is “significantly lower number of writhing compared to the control group”.
